According to patent US4052455A, “Styrylamidines” (Mead Johnson & Company, priority 1975, dated 1977):
Where a name gives a salt, the structure may show the parent alone. One block for each compound: values may come before it.

Legend:
platelet aggregation = test: Born/O'Brien nephelometric platelet aggregation test in platelet rich plasma (ADP or collagen induced); assay type: cell-based; conditions: human or rabbit platelet rich plasma, 50% or more reduction, read-out: Concentration at which collagen or adenosine diphosphate induced platelet aggregation is reduced by 50% or more
Experimental: (§1) Measurement of the antithrombogenic activity of the compounds of Formula I is carried out by standard pharmacological tests essentially described by Born, Nature, 194, 927 (1962) and O'Brien, J. Clin. Path., 15, 446 (1962). This test comprises a nephelometric method is which the change in turbidity of a specimen of platelet rich plasma (human or rabbit) is measured on causation of platelet aggregation by addition of a thrombogenic inducing agent such as adenosine diphosphate or collagen. The compounds of the present invention are effective antithrombogenic agents according to this test at concentrations in the order of about 0.5 to 90 mcg./0.5 ml. platelet rich plasma. In the intact animal, the antithrombogenic effect is readily observed by applying the above test to blood samples withdrawn prior to and after administration of a compound of the present invention.

[1] = test system: blood platelet aggregation; test: Oral administration to rabbits; inhibition of blood platelet aggregation induced by ADP or collagen in platelet rich plasma (Example 56); assay type: in vivo; conditions: rabbit, oral single dose 25 mg./kg.; for % Inhibition of Blood Platelet Aggregation Induced by ADP: ADP 0.25-1.0 microgram; for % Inhibition of Blood Platelet Aggregation Induced by Collagen: lowest amount of collagen giving maximal aggregation
Experimental: as §1
The styrylamidine is orally administered to each rabbit in a group of 2-6 rabbits at a single dose of 25 mg./kg. body weight. A 8 ml. portion of blood is drawn just prior to dosing in order to obtain a control value and at various time periods thereafter. Platelet rich plasma is prepared from each blood sample by centrifugation at 200 times gravity for 10 min. at room temperature. Samples (0.5 ml.) of platelet rich plasma are tested for their ability to aggregate with either collagen or adenosine-5'-diphosphate added as specified in the modification of Born and O'Brien method which has been fully described hereinbefore. The results shown below indicate the inhibition of blood platelet aggregation induced by the lowest amount of collagen giving maximal aggregation or 0.25-1.0 microgram adenosine-5'-diphosphate for representative amidines.

[2] = test system: phenylquinone writhing syndrome; test: Phenylquinone writhing test (analgesic activity); assay type: in vivo; conditions: mice; subcutaneous 6 mg./kg.; time interval 15 min.
Experimental: In this test, groups of 10-20 mice are injected subcutaneously or orally with different doses of the test compound. At predetermined time intervals, the mice receive 2.5 mg./kg. phenylquinone intraperitoneally. The total number of writhing episodes is counted for each mouse for 10 min. and the average percent decrease in writhing recorded for each dose.
The novel styrylsulfonylamidines of Formula V in addition to being useful as precursors to the styrylamidine products of Formula I have analgesic utility as measured in the foregoing phenylquinone writhing test. A preferred class of styrylsulfonylamidines of Formula V having particularly significant analgesic activity are those wherein R1 and R2 are each hydrogen, nitro or halogen and A is phenyl or lower alkyl of from 1 to 8 carbon atoms inclusive. Analgesic activity at the time interval indicated following administration of compounds representative of this class are given in Table I below.

SMILES: CCCC(=N)N/C=C/c1ccc(Cl)c(Cl)c1 [N-(3,4-DICHLOROSTYRYL)BUTYRAMIDINE HYDROCHLORIDE]
- % Inhibition of Blood Platelet Aggregation Induced by ADP ([1]; 1 hr.): 18%
- % Inhibition of Blood Platelet Aggregation Induced by ADP ([1]; 2 hrs.): 67%
- % Inhibition of Blood Platelet Aggregation Induced by ADP ([1]; 4 hrs.): 37%
- % Inhibition of Blood Platelet Aggregation Induced by ADP ([1]; 6 hrs.): 30%
- % Inhibition of Blood Platelet Aggregation Induced by ADP ([1]; 24 hrs.): 0%
- % Inhibition of Blood Platelet Aggregation Induced by Collagen ([1]; 1 hr.): 30%
- % Inhibition of Blood Platelet Aggregation Induced by Collagen ([1]; 2 hrs.): 92%
- % Inhibition of Blood Platelet Aggregation Induced by Collagen ([1]; 4 hrs.): 32%
- % Inhibition of Blood Platelet Aggregation Induced by Collagen ([1]; 6 hrs.): 45%
- % Inhibition of Blood Platelet Aggregation Induced by Collagen ([1]; 24 hrs.): 0%

SMILES: CC(=N)NS(=O)(=O)C=Cc1ccccc1 [N-(styrylsulfonyl)acetamidine, N-(STYRYLSULFONYL)ACETAMIDINE]
- Analgesic activity, Percent Inhibition [2]: 38%

SMILES: CC(=N)N/C=C/c1ccc(C2CCCCC2)c(Br)c1 [N-(3-BROMO-4-CYCLOHEXYLSTYRYL)ACETAMIDINE HYDROCHLORIDE]
- IC50 (platelet aggregation): < 30 µg/mL

SMILES: N=C(N/C=C/c1ccc(Cl)c(Cl)c1)c1ccccc1 [N-(3,4-DICHLOROSTYRYL)BENZAMIDINE HYDROCHLORIDE]
- % Inhibition of Blood Platelet Aggregation Induced by ADP ([1]; 0.5 hrs.): 61%
- % Inhibition of Blood Platelet Aggregation Induced by ADP ([1]; 2 hrs.): 54%
- % Inhibition of Blood Platelet Aggregation Induced by ADP ([1]; 4 hrs.): 30%
- % Inhibition of Blood Platelet Aggregation Induced by ADP ([1]; 6 hrs.): 22%
- % Inhibition of Blood Platelet Aggregation Induced by ADP ([1]; 24 hrs.): 0%
- % Inhibition of Blood Platelet Aggregation Induced by Collagen ([1]; 0.5 hrs.): 73%
- % Inhibition of Blood Platelet Aggregation Induced by Collagen ([1]; 2 hrs.): 65%
- % Inhibition of Blood Platelet Aggregation Induced by Collagen ([1]; 4 hrs.): 26%
- % Inhibition of Blood Platelet Aggregation Induced by Collagen ([1]; 6 hrs.): 3%
- % Inhibition of Blood Platelet Aggregation Induced by Collagen ([1]; 24 hrs.): 0%

SMILES: N=C(N/C=C/c1ccc([N+](=O)[O-])cc1)c1cc(N)cc(N)c1 [3,5-DIAMINO-N-(4-NITROSTYRYL)-BENZAMIDINE TRIHYDROCHLORIDE]
- IC50 (platelet aggregation): < 30 µg/mL

SMILES: N=C(N/C=C/c1ccc(Cl)c(Cl)c1)C1CC1 [N-(3,4-DICHLOROSTYRYL)CYCLOPROPANECARBOXAMIDINE HYDROCHLORIDE]
- % Inhibition of Blood Platelet Aggregation Induced by ADP ([1]; 1 hr.): 60%
- % Inhibition of Blood Platelet Aggregation Induced by ADP ([1]; 2 hrs.): 55%
- % Inhibition of Blood Platelet Aggregation Induced by ADP ([1]; 4 hrs.): 90%
- % Inhibition of Blood Platelet Aggregation Induced by ADP ([1]; 6 hrs.): 75%
- % Inhibition of Blood Platelet Aggregation Induced by ADP ([1]; 24 hrs.): 5%
- % Inhibition of Blood Platelet Aggregation Induced by Collagen ([1]; 1 hr.): 65%
- % Inhibition of Blood Platelet Aggregation Induced by Collagen ([1]; 2 hrs.): 85%
- % Inhibition of Blood Platelet Aggregation Induced by Collagen ([1]; 4 hrs.): 97%
- % Inhibition of Blood Platelet Aggregation Induced by Collagen ([1]; 6 hrs.): 87%
- % Inhibition of Blood Platelet Aggregation Induced by Collagen ([1]; 24 hrs.): 15%

SMILES: CN(C)c1ccc(C(=N)N/C=C/c2ccc([N+](=O)[O-])cc2)cc1 [4-(DIMETHYLAMINO)-N-(4-NITROSTYRYL)-BENZAMIDINE ISETHIONATE]
- IC50 (platelet aggregation): < 30 µg/mL

Now from value to compound:

- IC50 (platelet aggregation): < 30 µg/mL
SMILES: N=C(N/C=C/c1ccc([N+](=O)[O-])cc1)c1ccc(N)cc1 [4-AMINO-N-(4-NITROSTYRYL)BENZAMIDINE HYDROCHLORIDE]

- IC50 (platelet aggregation): < 30 µg/mL
SMILES: N=C(N/C=C/c1ccccc1N)c1ccccc1 [N-(2-AMINOSTYRYL)BENZAMIDINE DIHYDROCHLORIDE]

- IC50 (platelet aggregation): < 30 µg/mL
SMILES: N=C(N/C=C/c1ccc(N)cc1)c1ccccc1 [N-(4-AMINOSTYRYL)BENZAMIDINE DIHYDROCHLORIDE]

- IC50 (platelet aggregation): < 30 µg/mL
SMILES: N=C(N/C=C/c1ccc(N)cc1)c1cccc(N)c1 [3-AMINO-N-(4-AMINOSTYRYL)BENZAMIDINE TRIHYDROCHLORIDE MONOHYDRATE]
